# Key:
# [1] = system: endothelial tube formation in co-cultures of ECFCs and ADSCs treated with VEGF; assay: cells; format: cell-based, human
# [2] = system: nuclear β-catenin in C2C12 cells; assay: cells; format: cell-based; conditions: concentration response; for WntCondMedia_bCatenin C2C12 IC50/EC50: assay number 5
# [3] = system: alkaline phosphatase (ALP) activity in C2C12 cells; format: cell-based; conditions: concentration response; for WntCondMedia_Alk Phos C2C12 IC50/EC50: assay number 6
# HeLa cells = assay: cells; format: cell-based; conditions: for Hela CellCycMod PI 2N IC50/EC50: assay number 14; for Hela CellCycMod PI S Phase IC50/EC50: assay number 15; for Hela CellCycMod PI 4N IC50/EC50: assay number 16; for Hela CellCycMod PI MI IC50/EC50: assay number 17; for Hela CellCycMod PI Cell Number IC50/EC50: assay number 18
# DLD-1 = assay: cells; format: cell-based; conditions: for Basal_Viability ATP DLD-1 IC50/EC50: assay number 23
# SW480 = assay: cells; format: cell-based; conditions: for Basal_Viability ATP SW480 IC50/EC50: assay number 24
# HCT116 = assay: cells; format: cell-based; conditions: basal; for Basal_Viability ATP HCT116 IC50/EC50: assay number 25
# [4] = system: HCT116 cells treated with a GSK3β inhibitor; assay: cells; format: cell-based; conditions: for GSK3b inh pretreated_Viability ATP HCT116 IC50/EC50: assay number 26, GSK3b inhibitor pretreated
# Colo320 = assay: cells; format: cell-based; conditions: for Basal_Viability ATP Colo 320 IC50/EC50: assay number 27
# HT-29 = assay: cells; format: cell-based; conditions: for Basal_Viability ATP HT-29 IC50/EC50: assay number 28
# RKO = assay: cells; format: cell-based; conditions: for Basal_Viability ATP RKO IC50/EC50: assay number 29
# SNU-C1 = assay: cells; format: cell-based; conditions: for Basal_Viability ATP SNU-C1 IC50/EC50: assay number 30
# hp70S6K1 (RPS6KB1) = biological target: T1, hp70S6K1 (RPS6KB1) (Homo sapiens, UniProt P23443); assay: Cerep LANCE kinase assay hp70S6K1 (S1 assay 31); format: biochemical; conditions: for hp70S6K1 LANCE IC50/EC50: assay number 31
# T1 construct: purchased Cerep (LANCE kinase assay platform, contract assay)
# T1 sequence (P23443 whole entry): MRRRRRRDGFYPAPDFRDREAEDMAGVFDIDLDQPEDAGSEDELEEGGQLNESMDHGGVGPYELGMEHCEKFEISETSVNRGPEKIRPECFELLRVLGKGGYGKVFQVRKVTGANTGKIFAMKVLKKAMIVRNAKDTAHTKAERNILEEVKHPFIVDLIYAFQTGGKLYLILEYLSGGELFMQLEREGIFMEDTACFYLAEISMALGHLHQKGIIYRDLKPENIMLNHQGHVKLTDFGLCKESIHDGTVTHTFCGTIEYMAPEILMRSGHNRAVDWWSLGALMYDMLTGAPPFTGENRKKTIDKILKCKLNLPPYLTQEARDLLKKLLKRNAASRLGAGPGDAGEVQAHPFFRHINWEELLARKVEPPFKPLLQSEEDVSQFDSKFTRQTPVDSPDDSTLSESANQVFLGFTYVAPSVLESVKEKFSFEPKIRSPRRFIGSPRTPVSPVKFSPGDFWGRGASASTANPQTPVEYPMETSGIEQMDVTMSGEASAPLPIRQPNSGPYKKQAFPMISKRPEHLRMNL
# hKDR = biological target: T2, hKDR (Homo sapiens, UniProt P35968); assay: Cerep LANCE kinase assay hKDR (S1 assay 32); format: biochemical; conditions: for hKDR LANCE IC50/EC50: assay number 32
# T2 construct: purchased Cerep (LANCE kinase assay platform, contract assay)
# T2 sequence (P35968 20-1356): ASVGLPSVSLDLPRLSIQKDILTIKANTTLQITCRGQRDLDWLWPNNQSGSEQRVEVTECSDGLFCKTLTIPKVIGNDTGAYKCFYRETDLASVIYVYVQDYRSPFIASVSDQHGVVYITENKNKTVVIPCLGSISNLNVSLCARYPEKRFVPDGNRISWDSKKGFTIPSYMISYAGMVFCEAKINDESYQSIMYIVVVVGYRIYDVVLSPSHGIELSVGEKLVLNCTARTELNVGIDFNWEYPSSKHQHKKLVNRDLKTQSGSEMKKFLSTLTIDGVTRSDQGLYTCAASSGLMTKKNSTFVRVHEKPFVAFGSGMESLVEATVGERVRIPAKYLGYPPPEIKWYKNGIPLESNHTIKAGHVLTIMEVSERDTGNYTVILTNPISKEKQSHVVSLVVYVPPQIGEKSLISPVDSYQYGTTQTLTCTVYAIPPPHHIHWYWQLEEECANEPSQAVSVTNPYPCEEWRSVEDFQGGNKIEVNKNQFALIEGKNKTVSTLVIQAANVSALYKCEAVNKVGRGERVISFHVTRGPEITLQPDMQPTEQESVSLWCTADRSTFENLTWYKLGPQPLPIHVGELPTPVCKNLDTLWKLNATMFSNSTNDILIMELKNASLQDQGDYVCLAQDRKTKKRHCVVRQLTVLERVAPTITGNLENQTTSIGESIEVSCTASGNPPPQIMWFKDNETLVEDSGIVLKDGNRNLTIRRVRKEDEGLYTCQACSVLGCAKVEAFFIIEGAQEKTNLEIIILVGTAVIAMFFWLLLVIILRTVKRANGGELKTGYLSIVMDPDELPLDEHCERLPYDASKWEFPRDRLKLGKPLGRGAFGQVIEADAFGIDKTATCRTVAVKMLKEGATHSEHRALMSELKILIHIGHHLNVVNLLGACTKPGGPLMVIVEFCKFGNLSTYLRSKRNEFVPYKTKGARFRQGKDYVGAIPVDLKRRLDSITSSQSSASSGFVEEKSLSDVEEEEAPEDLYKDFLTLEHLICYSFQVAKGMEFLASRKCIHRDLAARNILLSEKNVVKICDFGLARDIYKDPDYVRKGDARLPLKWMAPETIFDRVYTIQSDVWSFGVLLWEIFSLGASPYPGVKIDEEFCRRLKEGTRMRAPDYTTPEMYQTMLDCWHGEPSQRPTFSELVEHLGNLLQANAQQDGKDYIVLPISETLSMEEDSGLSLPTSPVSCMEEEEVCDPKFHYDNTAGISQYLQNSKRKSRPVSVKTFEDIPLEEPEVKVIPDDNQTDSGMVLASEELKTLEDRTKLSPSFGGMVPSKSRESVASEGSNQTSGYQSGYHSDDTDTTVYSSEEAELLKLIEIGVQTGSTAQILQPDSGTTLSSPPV
# hJAK2 = biological target: T3, hJAK2 (Homo sapiens, UniProt O60674); assay: Cerep LANCE kinase assay hJAK2 (S1 assay 33); format: biochemical; conditions: for hJAK2 LANCE IC50/EC50: assay number 33
# T3 construct: purchased Cerep (LANCE kinase assay platform, contract assay)
# T3 sequence (O60674 whole entry): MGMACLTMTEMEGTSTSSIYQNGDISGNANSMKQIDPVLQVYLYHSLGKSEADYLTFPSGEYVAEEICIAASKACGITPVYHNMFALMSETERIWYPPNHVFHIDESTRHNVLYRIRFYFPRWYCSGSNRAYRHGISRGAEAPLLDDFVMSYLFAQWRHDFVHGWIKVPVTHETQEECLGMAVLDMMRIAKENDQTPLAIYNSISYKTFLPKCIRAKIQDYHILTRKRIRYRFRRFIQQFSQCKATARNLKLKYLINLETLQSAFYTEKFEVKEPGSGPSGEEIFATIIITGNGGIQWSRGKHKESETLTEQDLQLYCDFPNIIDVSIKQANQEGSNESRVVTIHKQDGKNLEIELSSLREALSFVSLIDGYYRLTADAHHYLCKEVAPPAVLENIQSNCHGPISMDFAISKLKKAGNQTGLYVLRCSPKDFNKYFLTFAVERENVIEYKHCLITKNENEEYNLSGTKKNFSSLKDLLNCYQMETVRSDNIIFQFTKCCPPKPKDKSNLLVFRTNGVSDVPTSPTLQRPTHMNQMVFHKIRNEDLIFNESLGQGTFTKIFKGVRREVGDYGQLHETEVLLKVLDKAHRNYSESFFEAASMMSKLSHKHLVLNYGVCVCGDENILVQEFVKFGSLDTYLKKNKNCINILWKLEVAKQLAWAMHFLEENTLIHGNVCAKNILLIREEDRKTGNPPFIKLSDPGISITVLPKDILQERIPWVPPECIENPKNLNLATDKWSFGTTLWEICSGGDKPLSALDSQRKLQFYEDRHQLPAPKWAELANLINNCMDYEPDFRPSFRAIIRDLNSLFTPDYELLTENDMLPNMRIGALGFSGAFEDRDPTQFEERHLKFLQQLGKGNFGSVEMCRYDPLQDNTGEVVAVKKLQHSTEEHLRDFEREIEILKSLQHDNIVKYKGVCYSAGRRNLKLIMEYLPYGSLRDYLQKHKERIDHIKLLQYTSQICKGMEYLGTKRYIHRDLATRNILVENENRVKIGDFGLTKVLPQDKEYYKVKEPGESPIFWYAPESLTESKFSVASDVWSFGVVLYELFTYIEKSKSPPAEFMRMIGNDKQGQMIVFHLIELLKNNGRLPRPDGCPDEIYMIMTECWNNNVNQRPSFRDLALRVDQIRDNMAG
# hGSK3b = biological target: T4, hGSK3b (Homo sapiens, UniProt P49841); assay: Cerep LANCE kinase assay hGSK3b (S1 assay 34); format: biochemical; conditions: for hGSK3b LANCE IC50/EC50: assay number 34
# T4 construct: purchased Cerep (LANCE kinase assay platform, contract assay)
# T4 sequence (P49841 whole entry): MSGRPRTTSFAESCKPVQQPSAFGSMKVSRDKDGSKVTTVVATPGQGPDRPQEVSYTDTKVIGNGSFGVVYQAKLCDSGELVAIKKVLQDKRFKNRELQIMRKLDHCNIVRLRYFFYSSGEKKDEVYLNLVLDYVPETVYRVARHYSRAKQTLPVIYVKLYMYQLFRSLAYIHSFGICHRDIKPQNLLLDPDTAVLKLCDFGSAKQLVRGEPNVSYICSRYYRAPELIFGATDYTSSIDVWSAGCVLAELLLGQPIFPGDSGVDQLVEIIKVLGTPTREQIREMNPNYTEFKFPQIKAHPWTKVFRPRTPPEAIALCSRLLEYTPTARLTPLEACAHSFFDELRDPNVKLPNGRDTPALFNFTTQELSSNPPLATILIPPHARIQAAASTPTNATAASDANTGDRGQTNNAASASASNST
# hFLT3 = biological target: T5, hFLT3 (Homo sapiens, UniProt P36888); assay: Cerep LANCE kinase assay hFLT3 (S1 assay 35); format: biochemical; conditions: for hFLT3 LANCE IC50/EC50: assay number 35
# T5 construct: purchased Cerep (LANCE kinase assay platform, contract assay)
# T5 sequence (P36888 27-993): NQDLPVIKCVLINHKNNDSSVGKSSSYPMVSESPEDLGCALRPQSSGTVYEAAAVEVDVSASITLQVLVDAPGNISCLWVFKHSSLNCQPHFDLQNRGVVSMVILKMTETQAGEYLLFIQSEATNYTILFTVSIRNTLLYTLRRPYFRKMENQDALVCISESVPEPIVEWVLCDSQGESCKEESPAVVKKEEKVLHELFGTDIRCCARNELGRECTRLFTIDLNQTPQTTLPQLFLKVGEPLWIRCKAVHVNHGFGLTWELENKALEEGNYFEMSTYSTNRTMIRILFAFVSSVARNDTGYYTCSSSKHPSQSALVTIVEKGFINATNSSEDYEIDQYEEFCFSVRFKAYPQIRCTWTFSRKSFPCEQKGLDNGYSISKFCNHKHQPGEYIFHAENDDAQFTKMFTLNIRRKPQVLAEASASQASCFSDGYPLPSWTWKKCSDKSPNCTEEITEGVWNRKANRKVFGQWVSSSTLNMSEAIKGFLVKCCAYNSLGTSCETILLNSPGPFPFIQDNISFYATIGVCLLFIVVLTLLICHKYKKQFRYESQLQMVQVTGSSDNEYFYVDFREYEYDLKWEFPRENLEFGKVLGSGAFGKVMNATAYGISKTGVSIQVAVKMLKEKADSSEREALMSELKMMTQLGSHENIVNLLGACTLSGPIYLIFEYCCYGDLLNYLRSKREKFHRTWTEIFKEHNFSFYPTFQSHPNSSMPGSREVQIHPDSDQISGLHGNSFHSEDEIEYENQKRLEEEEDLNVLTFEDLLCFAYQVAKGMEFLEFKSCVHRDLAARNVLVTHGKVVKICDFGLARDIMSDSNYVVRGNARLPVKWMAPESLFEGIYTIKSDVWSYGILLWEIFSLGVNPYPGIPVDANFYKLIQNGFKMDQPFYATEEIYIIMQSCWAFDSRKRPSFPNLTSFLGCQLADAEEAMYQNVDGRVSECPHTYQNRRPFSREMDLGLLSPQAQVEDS
# [5] = system: ECFC/ADSC co-culture cell nuclei number
smiles,measurement,setting,value
COc1cc(NCc2ccc3nc(N)nc(N)c3c2C)cc(OC)c1OC [NCGC00161419-05],VEGF_ADSC\ECFC Angio CD31 TubeArea IC50/EC50,[1],4.418 µM
same,WntCondMedia_bCatenin C2C12 IC50/EC50,[2],0.0033 µM
same,WntCondMedia_Alk Phos C2C12 IC50/EC50,[3],> 20 µM
same,Hela CellCycMod PI 2N IC50/EC50,HeLa cells; 2N,> 10 µM
same,Hela CellCycMod PI S Phase IC50/EC50,HeLa cells,> 10 µM
same,Hela CellCycMod PI 4N IC50/EC50,HeLa cells; 4N,> 10 µM
same,Hela CellCycMod PI MI IC50/EC50,HeLa cells; MI,> 10 µM
same,Hela CellCycMod PI Cell Number IC50/EC50,HeLa cells,3.8068 µM
same,Basal_Viability ATP DLD-1 IC50/EC50,DLD-1,0.1951 µM
same,Basal_Viability ATP SW480 IC50/EC50,SW480,0.0591 µM
same,Basal_Viability ATP HCT116 IC50/EC50,HCT116,0.02309 µM
same,GSK3b inh pretreated_Viability ATP HCT116 IC50/EC50,[4],0.00392 µM
same,Basal_Viability ATP Colo 320 IC50/EC50,Colo320,0.3859 µM
same,Basal_Viability ATP HT-29 IC50/EC50,HT-29,0.02122 µM
same,Basal_Viability ATP RKO IC50/EC50,RKO,0.00272 µM
same,Basal_Viability ATP SNU-C1 IC50/EC50,SNU-C1,5.1323 µM
same,hp70S6K1 LANCE IC50/EC50,hp70S6K1 (RPS6KB1),> 20 µM
same,hKDR LANCE IC50/EC50,hKDR,> 20 µM
same,hJAK2 LANCE IC50/EC50,hJAK2,> 20 µM
same,hGSK3b LANCE IC50/EC50,hGSK3b,> 20 µM
same,hFLT3 LANCE IC50/EC50,hFLT3,> 20 µM
same,VEGF_ADSC\ECFC Angio Hoechst NucArea IC50/EC50,[5],> 10 µM
COCc1c(C(C)C)nc(C(C)C)c(/C=C/[C@@H](O)C[C@@H](O)CC(=O)[O-])c1-c1ccc(F)cc1.[Na+] [NCGC00164625-04],VEGF_ADSC\ECFC Angio CD31 TubeArea IC50/EC50,[1],0.0894 µM
same,WntCondMedia_bCatenin C2C12 IC50/EC50,[2],> 6.667 µM
same,WntCondMedia_Alk Phos C2C12 IC50/EC50,[3],> 20 µM
same,Hela CellCycMod PI 2N IC50/EC50,HeLa cells; 2N,> 10 µM
same,Hela CellCycMod PI S Phase IC50/EC50,HeLa cells,> 10 µM
same,Hela CellCycMod PI 4N IC50/EC50,HeLa cells; 4N,> 10 µM
same,Hela CellCycMod PI MI IC50/EC50,HeLa cells; MI,> 10 µM
same,Hela CellCycMod PI Cell Number IC50/EC50,HeLa cells,> 10 µM
same,Basal_Viability ATP DLD-1 IC50/EC50,DLD-1; basal,2.507 µM
same,Basal_Viability ATP SW480 IC50/EC50,SW480; basal,0.1433 µM
same,Basal_Viability ATP HCT116 IC50/EC50,HCT116,0.2403 µM
same,GSK3b inh pretreated_Viability ATP HCT116 IC50/EC50,[4],0.05291 µM
same,Basal_Viability ATP Colo 320 IC50/EC50,Colo320; basal,1.924 µM
same,Basal_Viability ATP HT-29 IC50/EC50,HT-29; basal,1.212 µM
same,Basal_Viability ATP RKO IC50/EC50,RKO; basal,1.013 µM
same,Basal_Viability ATP SNU-C1 IC50/EC50,SNU-C1; basal,1.8733 µM
same,hp70S6K1 LANCE IC50/EC50,hp70S6K1 (RPS6KB1),> 20 µM
same,hKDR LANCE IC50/EC50,hKDR,> 20 µM
same,hJAK2 LANCE IC50/EC50,hJAK2,> 20 µM
same,hGSK3b LANCE IC50/EC50,hGSK3b,> 20 µM
same,hFLT3 LANCE IC50/EC50,hFLT3,> 20 µM
same,VEGF_ADSC\ECFC Angio Hoechst NucArea IC50/EC50,[5],0.259 µM
O=c1c(-c2ccccc2)c1-c1ccccc1 [NCGC00166113-04],"IC50/EC50, VEGF_ADSC\ECFC Angio CD31 TubeArea (assay number 2)",[1],3.8353 µM
same,"IC50/EC50, WntCondMedia_bCatenin C2C12 (assay number 5)",[2],> 20 µM
same,"IC50/EC50, WntCondMedia_Alk Phos C2C12 (assay number 6)",[3],3.6201 µM
same,"IC50/EC50, Hela CellCycMod PI 2N (assay number 14)",HeLa cells; 2N,> 10 µM
same,"IC50/EC50, Hela CellCycMod PI 4N (assay number 16)",HeLa cells; 4N,> 10 µM
same,"IC50/EC50, Hela CellCycMod PI Cell Number (assay number 18)",HeLa cells; Cell Number,1.6859 µM
same,"IC50/EC50, Hela CellCycMod PI MI (assay number 17)",HeLa cells; MI,> 10 µM
same,"IC50/EC50, Basal_Viability ATP DLD-1 (assay number 23)",DLD-1; basal,4.208 µM
same,"IC50/EC50, Basal_Viability ATP SW480 (assay number 24)",SW480; basal,> 20 µM
same,"IC50/EC50, Basal_Viability ATP HCT116 (assay number 25)",HCT116,> 20 µM
same,"IC50/EC50, GSK3b inh pretreated_Viability ATP HCT116 (assay number 26)",[4]; GSK3b inh pretreated,7.707 µM
same,"IC50/EC50, Basal_Viability ATP Colo 320 (assay number 27)",Colo320; basal,3.1012 µM
same,"IC50/EC50, Basal_Viability ATP HT-29 (assay number 28)",HT-29; basal,> 20 µM
same,"IC50/EC50, Basal_Viability ATP RKO (assay number 29)",RKO; basal,> 20 µM
same,"IC50/EC50, Basal_Viability ATP SNU-C1 (assay number 30)",SNU-C1; basal,> 20 µM
same,"IC50/EC50, hp70S6K1 LANCE (assay number 31)",hp70S6K1 (RPS6KB1),> 20 µM
same,"IC50/EC50, hKDR LANCE (assay number 32)",hKDR,> 20 µM
same,"IC50/EC50, hJAK2 LANCE (assay number 33)",hJAK2,> 20 µM
same,"IC50/EC50, hGSK3b LANCE (assay number 34)",hGSK3b,> 20 µM
same,"IC50/EC50, hFLT3 LANCE (assay number 35)",hFLT3,> 20 µM
same,"IC50/EC50, VEGF_ADSC\ECFC Angio Hoechst NucArea (assay number 3)",[5],6.7548 µM

# Source: publication PMC4503722, “Novel Phenotypic Outcomes Identified for a Public Collection of Approved Drugs from a Publicly Accessible Panel of Assays” (PLoS ONE, 2015)
